# Patent US7897568B2, “Compositions for treatment of cancer” (priority 2006, dated 2011)
# Where a SMILES comes first, the peptide text is derived from it. Where no end group is shown, it is not given here.
# What was measured:
# SNCG = SNCG (Homo sapiens, UniProt O76070); assay: Far-UV circular dichroism of SNCG titrated with ANK peptide, calculated secondary structure; parameters: The SNCG coding region was amplified from the human cDNA clone; GST (N, cleaved yes); made in house; host or cells: Escherichia coli BL21 (DE3)
# Experimental: FIGS. 1B and 1C provide far-UV circular dichroism (CD) spectra of SNCG (10 μM) with titration of ANK peptide […] (SEQ ID NO:1) at concentrations of 2 μM, 12 μM and 24 μM (FIG. 1B) and 25 μM, 50 μM and 100 μM (FIG. 1C). […] Spectra patterns correspond to random coil structures.
# Titration of SNCG with the ANK peptide also gave rise to far-UV spectra characteristic of an unfolded protein (FIG. 1B) and produced no significant changes in calculated secondary structure.
# The SNCG-ANK interaction was monitored using far-UV CD recorded on a rapid-scanning monochromator fitted with a CD module (RSM 1000, Olis Inc., Bogart Ga.). Samples containing 0.145 mg/ml SNCG were dialyzed into 5 mM sodium phosphate buffer, pH 7.0 for data acquisition. Spectra were averaged from 12 scans recorded at 25° C. The baseline was corrected by subtracting the spectra measured under identical conditions for the remaining buffer after dialysis. Peptide was reconstituted into flow-through buffer after dialysis and used for titration. Molar ellipticity [θ] was calculated according to the formula [θ]=[θ]×100/(nlc), where n represents the number of amino acids in the protein, l represents the path length of the cuvette in centimeters and c represents the concentration in millimolar. Percentage secondary structure was calculated using the web-based program CDNN (Bohm et al. Protein Eng. 1992 5:191-195).
# MCF7-SNCG cells = assay: Flow cytometry (PI cell cycle and anti-phospho-H3) after paclitaxel; type: cell-based; details: 0.5 μM paclitaxel
# Experimental: (§1) FIG. 7A through D show expression of EGFP-ANK disrupting the SNCG-mediated inhibition of mitotic checkpoint function as measured by microscopy and flow cytometry. The bar graphs show the expression of EGFP-ANK disrupting the SNCG-mediated inhibition of mitotic checkpoint function, using (FIG. 7A) DAPI and (FIG. 7B) anti-phospho-H^3 staining. For graphs of FIGS. 7A and 7B, the cells treated with 0.5 μM paclitaxel for 18 hours or untreated control cells were fixed with 4% paraformaldehyde for 20 minutes at room temperature. In both cases, the cells were then stained with 1 μg/ml of DAPI or 2 μg/ml anti-phospho-H3 primary and Texas Red goat anti-rabbit secondary antibodies (Invitrogen). Green fluorescent cells were identified for positive transfected cells. For each sample, 200-300 cells randomly chosen from 5 different views under a Nikon fluorescent microscope were scored for interphase, mitotic, or apoptotic based upon nuclei morphology. The data shown were derived from three separate transfections (p<0.01). […]
# (§2) Two days after transfection, cells were exposed to paclitaxel for 18 hours and numbers of mitotic arrested and apoptotic cells were counted after DAPI staining. […] These cells were also probed with rabbit polyclonal anti-phospho-H^3 and the mitotic index was calculated according to the proportion of the number of H^3 stained EGFP positive cells to total EGFP positive cells (FIG. 7B). […]
# MCF7-SNCG and T47D cells = assay: Mitotic index by anti-phospho-H3 immunostaining (microscopy) after paclitaxel; type: cell-based; details: over-expressing EGFP-ANK in MCF7-SNCG and T47D cells
# Experimental: as §1, §2
# Chain of SNCG (O76070 whole entry): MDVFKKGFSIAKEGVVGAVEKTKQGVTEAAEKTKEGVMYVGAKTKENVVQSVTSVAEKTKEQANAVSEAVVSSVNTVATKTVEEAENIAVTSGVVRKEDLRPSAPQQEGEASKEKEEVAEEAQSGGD
Compound,Structure (%) Antiparallel (SNCG; SNCG + 2.0 μM ANK Peptide),Structure (%) Beta-Turn (SNCG; SNCG + 2.0 μM ANK Peptide),Structure (%) Helix (SNCG; SNCG + 2.0 μM ANK Peptide),Structure (%) Parallel (SNCG; SNCG + 2.0 μM ANK Peptide),Structure (%) Random Coil (SNCG; SNCG + 2.0 μM ANK Peptide),Structure (%) Antiparallel (SNCG; SNCG + 12 μM ANK Peptide),Structure (%) Beta-Turn (SNCG; SNCG + 12 μM ANK Peptide),Structure (%) Helix (SNCG; SNCG + 12 μM ANK Peptide),Structure (%) Parallel (SNCG; SNCG + 12 μM ANK Peptide),Structure (%) Random Coil (SNCG; SNCG + 12 μM ANK Peptide),Structure (%) Antiparallel (SNCG; SNCG + 24 μM ANK Peptide),Structure (%) Beta-Turn (SNCG; SNCG + 24 μM ANK Peptide),Structure (%) Helix (SNCG; SNCG + 24 μM ANK Peptide),Structure (%) Parallel (SNCG; SNCG + 24 μM ANK Peptide),Structure (%) Random Coil (SNCG; SNCG + 24 μM ANK Peptide),increase in positive phosphorylated histones (anti-phospho-H3 staining) (MCF7-SNCG cells; versus MCF7-SNCG cells not containing EGFP-ANK),"increase in apoptotic/dead cell population (MCF7-SNCG cells; cell cycle analysis, versus control vector pEGFP)",sensitivity to paclitaxel by anti-phospho-H3 mitotic index (MCF7-SNCG and T47D cells)
CC[C@H](C)[C@H](NC(=O)[C@H](CS)NC(=O)CNC(=O)[C@H](CC(C)C)NC(=O)[C@H](Cc1c[nH]cn1)NC(=O)CNC(=O)[C@H](Cc1c[nH]cn1)NC(=O)[C@H](CCC(N)=O)NC(=O)[C@H](CO)NC(=O)[C@H](C)NC(=O)[C@@H](NC(=O)[C@H](Cc1c[nH]cn1)NC(=O)[C@H](CC(C)C)NC(=O)[C@H](C)NC(=O)[C@H](CO)NC(=O)[C@H](CC(N)=O)NC(=O)CNC(=O)[C@H](CCCCN)NC(C)=O)C(C)C)C(=O)N[C@@H](CCC(N)=O)C(=O)N[C@H](C(=O)N[C@@H](CC(C)C)C(=O)N[C@H](C(=O)N[C@@H](CCCNC(=N)N)C(=O)N[C@@H](Cc1ccc(O)cc1)C(=O)NCC(=O)N[C@@H](C)C(=O)N[C@@H](CC(N)=O)C(=O)N[C@H](C(=O)N[C@H](C(=O)N[C@@H](CCSC)C(=O)N[C@@H](CCC(N)=O)C(=O)N[C@@H](CC(N)=O)C(=O)N[C@@H](Cc1c[nH]cn1)C(=O)NCC(N)=O)[C@@H](C)O)C(C)C)C(C)C)[C@@H](C)O [ANK peptide] (Ac-KGNSALHVASQHGHLGCIQTLVRYGANVTMQNHG-NH2),9.00%,17.6%,29.2%,10.3%,36.0%,8.80%,17.4%,30.0%,10.0%,35.4%,8.70%,17.3%,30.4%,9.90%,35.0%,–,–,–
"EGFP-ANK: ANK peptide expressed as a fusion protein with its amino-terminal linked to EGFP protein, approximately 37 kDa ({EGFP}-KGNSALHVASQHGHLGCIQTLVRYGANVTMQNHG)",–,–,–,–,–,–,–,–,–,–,–,–,–,–,–,"3,5 fold",almost a four-fold increase,increases in sensitivity to paclitaxel
